Data on 3 compounds can be found in article PMC5433098, “Intrinsic Toxin-Derived Peptides Destabilize and Inactivate Clostridium difficile TcdB” (mBio, 2017).

The subject of data set [1] is TcdB2Δ1853–2366. The experiment in a line: Surface plasmon resonance (SPR). It is filed as binding, Clostridium difficile. The note with it: 40 µM PepB2, 20 μl/min, 25°C. The method, then:
(§1) Surface plasmon resonance (SPR) analysis was performed using a Biacore 3000 instrument (OMRF Biacore Core Facility). TcdB2, TcdB2Δ1853–2366, TcdB2_1851–2366, or BSA was captured on a CM5 sensor chip via amine coupling chemistry based on EDC/N-hydroxysuccinimide (NHS) activation of the carboxymethyl groups of the sensor chip surface. For TcdB2 conjugation, 1 μM TcdB2 or TcdB2Δ1853–2366 was injected at a flow rate of 10 μl/min. TcdB2_1851–2366 was injected at a concentration of 2.5 μM with a flow rate of 10 μl/min. After protein conjugation, ethanolamine was passed over the sensor chip to deactivate unreacted NHS esters. The running buffer used for the binding experiments consisted of 25 mM HEPES (pH 7.4), 150 mM NaCl, and 0.01% Tween 20, and the chip regeneration buffer consisted of 50 mM NaOH and 1 M NaCl.
In general terms: Surface plasmon resonance follows binding to a sensor surface in real time, without labels.

For data set [2], the system named is TcdB2. Kind of data set: Surface plasmon resonance (SPR). Format: binding, Clostridium difficile. The method, then: as §1
The subject of data set [3] is TcdB1. The experiment in a line: Cytotoxicity assay in CHO-K1 cells (CCK-8). Format: cell-based, Clostridium difficile. The note with it: 24 h, 50 µM peptide, n = 3. How it is done:
(§2) In cytotoxicity assays, CHO-K1 cells were seeded in 96-well plates at a density of 1.0 × 10^4 cells/well and allowed to attach overnight. Cells were incubated with toxin or toxin plus peptide for 24 h, and then cell viability was quantified by the cell counting kit 8 (CCK-8) assay (Sigma), a WST-8 dye-based colorimetric reaction.

In data set [4] the test system is TcdB2. Kind of data set: Cytotoxicity assay in CHO-K1 cells (CCK-8). Format: cell-based, Clostridium difficile. The note with it: 24 h, 50 µM peptide, n = 3. The method, then: as §2
The subject of data set [5] is TcdB. Kind of data set: In vitro autoprocessing assay with IP6. Format: biochemical, Clostridium difficile. The note with it: 37 pM TcdB, 500 µM IP6, 1 h 37°C, 50 µM peptide, n = 4. How it is done: TcdB autoprocessing was activated by incubating 37 pM TcdB with 500 µM inositol hexakisphosphate (IP6) for 1 h at 37°C in a buffer consisting of 50 mM HEPES (pH 7.5), 150 mM NaCl, and 20 mM dithiothreitol (DTT). After the reaction was stopped by heating the samples at 95°C for 7 min in SDS-PAGE sample buffer, cleavage of TcdB was evaluated by an immunoblot assay probing with antibodies to the amino-terminal domain of TcdB (R&D Systems; catalog no. AF6246).

The subject of data set [6] is TcdB1. The experiment in a line: Transepithelial electrical resistance (TER) in T84 cells. The note with it: polarized T84 cells, 40 pM TcdB1, 50 µM peptide, n = 4.
Data set [7] can be described thus: Oligomerization by BS3 cross-linking and SDS-PAGE. It is filed as physicochemical. The note with it: 1.4 mM peptide, 5 mM BS3, 25 mM HEPES pH 7.4, 150 mM NaCl, 30 min 25°C; 4 to 20% SDS-PAGE, Coomassie. The method, then:
Peptides were cross-linked using bis(sulfosuccinimidyl)suberate (BS^3), which is a water-soluble homobifunctional cross-linking agent that reacts with primary amine groups. The cross-linking reaction was performed with 1.4 mM peptide and 5 mM BS^3 in a buffer consisting of 25 mM HEPES (pH 7.4) and 150 mM NaCl. The reaction proceeded for 30 min at 25°C and then was quenched with 100 mM Tris, pH 8.0.

For data set [8], the system named is TcdB. Kind of data set: Intracellular Rac1 glucosylation in CHO-K1 cells (immunoblot). Format: cell-based, Clostridium difficile. The note with it: TcdB 0.037-3.7 pM, 25 h, 50 µM peptide. The method, then: CHO-K1 cells were cultured as described above and were seeded the day before the experiment in 24-well plates at a density of 5.0 × 10^4 cells/well. TcdB was then combined with peptide in complete culture medium and added to cells. Following this exposure, total proteins were extracted by removing culture medium and adding cold lysis buffer (1% SDS, 50 mM Tris-HCl [pH 7.4], 5 mM EDTA, and a protease inhibitor mixture). For each condition, equal amounts of total protein were analyzed by immunoblot probing with a mouse monoclonal antibody to total Rac1 (EMD Millipore; catalog no. 05-389) or a mouse monoclonal antibody recognizing nonglucosylated Rac1 (BD Bioscience; catalog no. 610651).
For orientation: In western blotting, separated proteins are transferred to a membrane and probed.

The test system of the next data set is TcdA. The experiment in a line: Cytotoxicity assay in CHO-K1 cells. Format: cell-based, Clostridium difficile. The note with it: 24 h, 50 µM peptide, n = 3. The method, then:
as §2

Data set [9] deals with TcdB2Δ1853–2366. The experiment in a line: Cytotoxicity assay in CHO-K1 cells. It is filed as cell-based, Clostridium difficile. The note with it: 24 h, n = 3. The method, then:
as §2

For data set [10], the system named is Bacillus anthracis lethal toxin (LT).
For data set [11], the system named is TcdB. Kind of data set: Dialysis (50-kDa cutoff) followed by cytotoxicity assay in CHO-K1 cells. It is filed as cell-based, Clostridium difficile. The note with it: for TcdB-inhibitory activity retained after dialysis: 125 μM inhibitor in serum-free F-12–K, 50-kDa-cutoff membrane into PBS, about 62.5 μM tested, CHO-K1, 24 h, 0.4 pM TcdB, n = 3. How it is done:
as §2
Inhibitors were diluted to 125 μM in F-12–K medium lacking FBS. Then, 1 ml of the diluted inhibitor was dialyzed with a 50-kDa-cutoff membrane into 2 liters of PBS while stirring. After 3 h, the PBS was discarded and replaced with an additional 1.5 liters of PBS. After 2 more hours of stirring dialysis, the inhibitors were removed from the dialysis tube and diluted into F-12–K medium containing 20% FBS. This produced an inhibitor concentration of approximately 62.5 μM that was then tested for TcdB inhibition using a cytotoxicity assay described above. As controls, a portion of the diluted inhibitors were subjected to mock dialysis conditions and also tested in a cytotoxicity assay.

In data set [12] the test system is bovine serum albumin (BSA). Kind of data set: Surface plasmon resonance (SPR), reference channel. Format: binding. How it is done: as §1
The subject of data set [13] is TcdB. The experiment in a line: In vitro Rac1 glucosylation assay. It is filed as biochemical, Clostridium difficile. The note with it: TcdB 1.2-24 nM, 400 nM GST-Rac1, 40 μM UDP-glucose, 37°C 1 h, 50 µM peptide, n = 3. How it is done:
(§3) To determine how PepB2 influences the glucosylation activity of TcdB, 400 nM purified GST-Rac1 and 40 μM UDP-glucose were combined with a range of concentrations of TcdB (1.2 nM to 24 nM) or GTD (0.5 nM to 25 nM). These reactions were performed in 20 μl of buffer consisting of 50 mM HEPES (pH 7.5), 100 mM KCl, 2 mM MgCl2, 1 mM MnCl2, and 100 μg/ml BSA. The reactions were carried out at 37°C for 1 h and were stopped by heating the samples at 95°C for 7 min in sample buffer (62.5 mM Tris-HCl [pH 6.8], 2% SDS, 10% glycerol, 5% β-mercaptoethanol, and 0.001% bromphenol blue). An immunoblotting assay was then performed by probing with a mouse monoclonal antibody to total Rac1 (EMD Millipore; catalog no. 05-389) or a mouse monoclonal antibody recognizing nonglucosylated Rac1 (BD Bioscience; catalog no. 610651).

Data set [14] has as its system purified recombinant GTD (TcdB aa 1 to 543). The experiment in a line: In vitro Rac1 glucosylation assay. Format: biochemical, Clostridium difficile. The note with it: GTD 0.5-25 nM, 50 µM peptide, n = 2. The method, then:
as §3

In data set [15] the test system is TcdB. The experiment in a line: TcdB associating with CHO-K1 cells (immunoblot). Format: cell-based, Clostridium difficile. The note with it: 37°C, 4 nM TcdB, 50 µM peptide. The method, then: CHO-K1 cells were cultured as described above and were seeded the day before the experiment in 12-well plates at a density of 1.0 × 10^5 cells/well. These cells were then exposed for 10 min or 30 min at 37°C to 4 nM of TcdB in the presence and absence of peptide. After this exposure, the cells were then washed twice with 1 ml of complete medium, and then total proteins were extracted by adding cold lysis buffer (1% SDS, 50 mM Tris-HCl [pH 7.4], 5 mM EDTA, and a protease inhibitor mixture). For each condition, equal amounts of total protein were analyzed by immunoblot probing with antibodies to the amino-terminal domain of TcdB (R&D Systems; catalog no. AF6246) or an antibody to glyceraldehyde-3-phosphate dehydrogenase (GAPDH) (Abcam; catalog no. AB8245).

Bounds are passed on as bounds.

Take `CC[C@H](C)[C@H](NC(=O)[C@H](CCCCN)NC(=O)[C@H](CC(=O)O)NC(=O)[C@H](CO)NC(=O)[C@@H](NC(=O)[C@@H](NC(=O)[C@H](CC(N)=O)NC(=O)CNC(=O)[C@H](CCCCN)NC(=O)[C@H](Cc1ccccc1)NC(=O)[C@@H](NC(=O)[C@@H](N)CC(N)=O)C(C)C)[C@@H](C)O)[C@@H](C)CC)C(=O)N[C@@H](CO)C(=O)N[C@@H](Cc1ccccc1)C(=O)N[C@@H](CC(N)=O)C(=O)N[C@@H](Cc1ccccc1)C(=O)N[C@@H](CO)C(=O)N[C@@H](CC(=O)O)C(=O)N[C@@H](CCCCN)C(=O)O` [PepB2]: the “binding to TcdB2Δ1853–2366 compared with equal moles of TcdB2” value with TcdB2Δ1853–2366 [1] is listed as “much higher levels of PepB2 bound TcdB2 than TcdB2Δ1853–2366”. The “binding to sensor chip-immobilized TcdB” value with TcdB2 [2] (SPR, Biacore 3000, CM5 chip, 5 μl/min, 25°C, BSA reference subtracted) is on record as “binds TcdB”. In the data set on TcdB2 [2] (calculated from change in response units on immobilized TcdB), the “number of peptide molecules bound per single molecule of TcdB” value is reported as “approximately 250 molecules”. Also, the “increase of the 50% toxic concentration (TC50) of TcdB1” value in the data set with TcdB1 [3] (range of toxin concentrations) is on record as 500 fold. Moreover, the “increase of the 50% toxic concentration (TC50) of TcdB2” value in the data set with TcdB2 [4] (range of toxin concentrations) turned out to be 200 fold. Further, in the data set on TcdB [5], the “effect on IP6-induced TcdB autoproteolysis” value is on record as “enhanced the efficiency of IP6-induced TcdB autoproteolysis”. Moreover, the “effect on TcdB-mediated disruption of transepithelial resistance” value with TcdB1 [6] is reported as “prevented TcdB-mediated disruption of transepithelial resistance”. The “oligomerization after BS3 cross-linking” value in data set [7] was “unable to migrate by SDS-PAGE”. In addition, the “effect on Rac1 glucosylation by TcdB in treated cells” value in the data set with TcdB [8] is “prevented Rac1 glucosylation by TcdB in treated cells”. Besides, the “inhibition of TcdA cytotoxicity” value with TcdA is listed as “did not block cytotoxicity”. Also, the “decrease in sensitivity of TcdB2Δ1853–2366 to peptide relative to full-length TcdB2” value in the data set with TcdB2Δ1853–2366 [9] is recorded as 10 fold. In addition, in [10], the “inhibition of Bacillus anthracis lethal toxin cytotoxicity” value is given as “did not block cytotoxicity”. Moreover, in the data set on TcdB [11], the “TcdB-inhibitory activity retained after dialysis” value is given as “TcdB-inhibitory activity was not removed”. In the data set on TcdB [11] (retained by 50-kDa-cutoff dialysis membrane), the “size of inhibitory oligomer” value is reported as > 50 kDa. For the same compound, in data set [12], the “binding to BSA-coated reference channel” value is “did not bind”. Further, the “effect on in vitro glucosylation of Rac1 by TcdB” value in the data set on TcdB [13] is on record as “did not suppress the in vitro glucosylation of Rac1 by TcdB but instead appeared to increase enzymatic activity”. Further, in [14], the “effect on glucosyltransferase activity of purified recombinant GTD” value is on record as “no effect on the glucosyltransferase activity”. Besides, the “TcdB association with cells, 10 min” value in the data set on TcdB [15] (10 min, n = 4) is “significantly reduced”. In the data set with TcdB [15] (30 min), the “TcdB association with cells, 30 min” value is listed as “not reduced” and the “TcdB proteolytic cleavage on cells, 30 min” value was “causes TcdB to become susceptible to proteolytic cleavage”.
On to `COC(=O)CC[C@@H](C)[C@H]1CC[C@H]2[C@@H]3[C@H](O)C[C@@H]4C[C@H](O)CC[C@]4(C)[C@H]3C[C@H](O)[C@]12C` [methyl cholate, reference compound], for which the “TcdB-inhibitory activity retained after dialysis” value in the data set on TcdB [11] was “toxin-inhibitory activity was lost”.
For the compound “PepB1: peptide based on the 1769-to-1787 region of TcdB1 (NVFKDKTLANKLSFNFSDK; UniProt P18177 1769-1787, looked up, fragment)”, in the data set on TcdB1 [3], the “inhibition of TcdB1 cytotoxicity” value is on record as “did not inhibit the cytotoxicity”. Moreover, the “inhibition of TcdB2 cytotoxicity” value in the data set on TcdB2 [4] is recorded as “did not inhibit the cytotoxicity”. In addition, the “oligomerization after BS3 cross-linking” value in data set [7] is “migrated into the gel in a similar pattern as uncross-linked control peptides”.
